# Data taken from patent US5212286A, “Atrial Natriuretic/vasodilator peptide compounds” (Scios Nova Inc., priority 1986, dated 1993).
# pIC50: −log10 of the molar value. Positions of bridges follow the written chain, without caps; N, C: chain ends. Non-standard residues stand in square brackets, D forms with d. Residues, ends and D or L forms follow the SMILES beside them.
# How the values were obtained:
# intact rats = test: Natriuretic and diuretic effects in intact rats (bolus injection); type: in vivo, rat
# Experimental: Synthetic ANVP compounds […] hANVP(127-151) were also found to be natriuretic in the intact rat. These compounds were administered as a bolus injection to Inactin anesthetized rats (100 mg/kg, average weight 399 g) which were maintained on a constant infusion of normal saline at 2.2 ml/hr. […] Data are expressed as mean±SE.
# [1] = tested on: precontracted rabbit or rat aortic preparations; test: Vasorelaxant potency on precontracted aortic rings; conditions: for pIC50: thoracic aortic segments precontracted with histamine or norepinephrine, read-out: IC50 (concentration producing half-maximal relaxation of the precontracted tissue); for vasorelaxant potency in words: precontracted vascular preparations
# Experimental: Synthetic ANVP compounds were compared to partially purified (gel filtration step) and purified (HPLC) native ANVP compounds (See FIGS. 3A-D) for their ability to relax histamine-contracted aortic rings. Rings were suspended in 10 ml aerated Kreb's buffer under 1.5 gm passive tension. Rings were precontracted with 5 X 10^-6 M histamine, washed and allowed to return to baseline tension, as described ([…]., supra). Increasing amounts of purified or synthetic ANVP compounds were then added in cumulative fashion. […] The relaxation effects of various ANVP compounds on precontracted rabbit or rat aortic preparations are shown in Table III. | Thoracic aortic segments were precontracted with histamine or | norepinephrine as previously described. Various doses of ANVP compounds | were then added and relaxation of the precontracted state was monitored. | Data are expressed as the concentration of each peptide required to | produce a halfmaximal relaxation of the precontracted tissue (IC50).
smiles,measurement,setting,value
"CC[C@H](C)[C@@H]1NC(=O)[C@H](CCCNC(=N)N)NC(=O)[C@H](CC(=O)O)NC(=O)[C@H]([C@@H](C)CC)NC(=O)[C@H](CCCNC(=N)N)NC(=O)[C@@H](C)NC(=O)CNC(=O)[C@H](Cc2ccccc2)NC(=O)[C@@H](NC(=O)[C@H](CO)NC(=O)[C@H](CO)NC(=O)[C@@H](N)CCCNC(=N)N)CSSC[C@@H](C(=O)N[C@@H](CC(N)=O)C(=O)N[C@@H](CO)C(=O)N[C@@H](Cc2ccccc2)C(=O)N[C@@H](CCCNC(=N)N)C(=O)N[C@@H](Cc2ccc(O)cc2)C(=O)O)NC(=O)CNC(=O)[C@H](CC(C)C)NC(=O)CNC(=O)[C@H](CO)NC(=O)[C@H](CCC(N)=O)NC(=O)[C@H](C)NC(=O)CNC1=O [[D-Ala^132]rANVP(126-150), H-Arg-Ser-Ser-Cys-Phe-Gly-[D-Ala]-Arg-Ile-Asp-Arg-Ile-Gly-Ala-Gln-Ser-Gly-Leu-Gly-Cys-Asn-Ser-Phe-Arg-Tyr-OH]",Peak Na+ Excr.,intact rats; dose 3670 pmol/kg,20 ± 5 µmol/min
same,Peak Urine Vol.,intact rats; dose 3670 pmol/kg,89 µL/min
"CC[C@H](C)[C@@H]1NC(=O)[C@H](CCCNC(=N)N)NC(=O)[C@H](CC(=O)O)NC(=O)[C@@H](C(C)C)NC(=O)[C@H](CCCNC(=N)N)NC(=O)CNC(=O)CNC(=O)[C@H](Cc2ccccc2)NC(=O)[C@@H](NC(=O)[C@H](CO)NC(=O)[C@H](CO)NC(=O)[C@@H](N)CCCNC(=N)N)CSSC[C@@H](C(=O)N[C@@H](CC(N)=O)C(=O)N[C@@H](CO)C(=O)N[C@@H](Cc2ccccc2)C(=O)N[C@@H](CCCNC(=N)N)C(=O)N[C@@H](Cc2ccc(O)cc2)C(=O)O)NC(=O)CNC(=O)[C@H](CC(C)C)NC(=O)CNC(=O)[C@H](CO)NC(=O)[C@H](CCC(N)=O)NC(=O)[C@H](C)NC(=O)CNC1=O [[D-Val^134]rANVP(126-150), H-Arg-Ser-Ser-Cys-Phe-Gly-Arg-[D-Val]-Asp-Arg-Ile-Gly-Ala-Gln-Ser-Gly-Leu-Gly-Cys-Asn-Ser-Phe-Arg-Tyr-OH]",pIC50,[1],7.89
"CC[C@H](C)[C@@H]1NC(=O)[C@H](CCCNC(=N)N)NC(=O)[C@H](CC(=O)O)NC(=O)[C@H]([C@@H](C)CC)NC(=O)[C@H](CCCNC(=N)N)NC(=O)[C@@H]2CCCN2C(=O)CNC(=O)[C@H](Cc2ccccc2)NC(=O)[C@@H](NC(=O)[C@H](CO)NC(=O)[C@H](CO)NC(=O)[C@@H](N)CCCNC(=N)N)CSSC[C@@H](C(=O)N[C@@H](CC(N)=O)C(=O)N[C@@H](CO)C(=O)N[C@@H](Cc2ccccc2)C(=O)N[C@@H](CCCNC(=N)N)C(=O)N[C@@H](Cc2ccc(O)cc2)C(=O)O)NC(=O)CNC(=O)[C@H](CC(C)C)NC(=O)CNC(=O)[C@H](CO)NC(=O)[C@H](CCC(N)=O)NC(=O)[C@H](C)NC(=O)CNC1=O [[Pro^132]rANVP(126-150), H-Arg-Ser-Ser-Cys-Phe-Gly-Pro-Arg-Ile-Asp-Arg-Ile-Gly-Ala-GLn-Ser-Gly-Leu-Gly-Cys-Asn-Ser-Phe-Arg-Tyr-OH]",pIC50,[1],8.49
same,Peak Na+ Excr.,intact rats; dose 3670 pmol/kg,56 ± 20 µmol/min
same,Peak Urine Vol.,intact rats; dose 3670 pmol/kg,10.5 ± 2 µL/min
"CC[C@H](C)[C@@H]1NC(=O)[C@H](CCCNC(=N)N)NC(=O)[C@H](CC(=O)O)NC(=O)[C@H]([C@@H](C)CC)NC(=O)[C@H](CCCNC(=N)N)NC(=O)CNC(=O)CNC(=O)[C@H](Cc2ccccc2)NC(=O)[C@@H](NC(=O)[C@H](CO)NC(=O)[C@H](CO)NC(=O)[C@@H](N)CCCNC(=N)N)CSSC[C@@H](C(=O)N[C@@H](CC(N)=O)C(=O)N[C@@H](CO)C(=O)N[C@@H](Cc2ccccc2)C(=O)N[C@@H](CCCNC(=N)N)C(=O)N[C@@H](Cc2ccc(O)cc2)C(N)=O)NC(=O)CNC(=O)[C@H](CC(C)C)NC(=O)CNC(=O)[C@H](CO)NC(=O)[C@H](CCC(N)=O)NC(=O)[C@H](C)NC(=O)CNC1=O [rANVP(126-150)-NH2, H-Arg-Ser-Ser-Cys-Phe-Gly-Gly-Arg-Ile-Asp-Arg-Ile-Gly-Ala-Gln-Ser-Glyn-Leu- Gly-Cys-Asn-Ser-Phe-Arg-Tyr-NH2]",vasorelaxant potency in words,[1],most potent
same,pIC50,[1],9.10
same,Peak Na+ Excr.,intact rats; dose 367 pmol/kg,57 µmol/min
same,Peak Urine Vol.,intact rats; dose 367 pmol/kg,11.2 ± 1.6 µL/min
"CC[C@H](C)[C@@H]1NC(=O)[C@H](CCCNC(=N)N)NC(=O)[C@H](CC(=O)O)NC(=O)[C@H]([C@@H](C)CC)NC(=O)[C@H](CCCNC(=N)N)NC(=O)CNC(=O)[C@@H](C)NC(=O)[C@H](Cc2ccccc2)NC(=O)[C@@H](NC(=O)[C@H](CO)NC(=O)[C@H](CO)NC(=O)[C@@H](N)CCCNC(=N)N)CSSC[C@@H](C(=O)N[C@@H](CC(N)=O)C(=O)N[C@@H](CO)C(=O)N[C@@H](Cc2ccccc2)C(=O)N[C@@H](CCCNC(=N)N)C(=O)N[C@@H](Cc2ccc(O)cc2)C(=O)O)NC(=O)CNC(=O)[C@H](CC(C)C)NC(=O)CNC(=O)[C@H](CO)NC(=O)[C@H](CCC(N)=O)NC(=O)[C@H](C)NC(=O)CNC1=O [[D-Ala^131]rANVP(126-150), H-Arg-Ser-Ser-Cys-Phe-[D-Ala]-Gly-Arg-Ile-Asp-Arg-Ile-Gly-Ala-Gln-Ser-Gly-Leu-Gly-Cys-Asn-Ser-Phe-Arg-Tyr-OH]",vasorelaxant potency in words,[1],most potent
same,pIC50,[1],9.05
"CC[C@H](C)[C@@H]1NC(=O)[C@H](CCCNC(=N)N)NC(=O)[C@H](CC(=O)O)NC(=O)[C@H]([C@@H](C)CC)NC(=O)[C@H](CCCNC(=N)N)NC(=O)CNC(=O)[C@@H](C)NC(=O)[C@H](Cc2ccccc2)NC(=O)[C@@H](NC(=O)[C@H](CO)NC(=O)[C@H](CO)NC(=O)[C@@H](N)CCCNC(=N)N)CSSC[C@@H](C(=O)N[C@@H](CC(N)=O)C(=O)N[C@@H](CO)C(=O)N[C@@H](Cc2ccccc2)C(=O)N[C@@H](CCCNC(=N)N)C(=O)N[C@@H](Cc2ccc(O)cc2)C(=O)O)NC(=O)CNC(=O)[C@H](CC(C)C)NC(=O)[C@@H](C)NC(=O)[C@H](CO)NC(=O)[C@H](CCC(N)=O)NC(=O)[C@H](C)NC(=O)CNC1=O [[D-Ala^131][D-Ala^142]rANVP(126-150), H-Arg-Ser-Ser-Cys-Phe-[D-Ala]Gly-Arg-Ile-Asp-Arg-Ile-Gly-Ala-Gln-Ser-[D-Ala]-Leu-Gly-Cys-Asn-Ser-Phe-Arg-Tyr-OH] (H-RSSCF[dA]GRIDRIGAQS[dA]LGCNSFRY-OH; disulfide 4-20)",Peak Na+ Excr.,intact rats; dose 3670 pmol/kg,140 ± 8 µmol/min
same,Peak Urine Vol.,intact rats; dose 3670 pmol/kg,30 ± 7 µL/min
"CC[C@H](C)[C@@H]1NC(=O)[C@H](CCCNC(=N)N)NC(=O)CNC(=O)CNC(=O)[C@H](Cc2ccccc2)NC(=O)[C@@H](NC(=O)[C@H](CO)NC(=O)[C@H](CO)NC(=O)[C@@H](N)CCCNC(=N)N)CSSC[C@@H](C(=O)N[C@@H](CC(N)=O)C(=O)N[C@@H](CO)C(=O)N[C@@H](Cc2ccccc2)C(=O)N[C@@H](CCCNC(=N)N)C(=O)N[C@@H](Cc2ccc(O)cc2)C(=O)O)NC(=O)CNC(=O)[C@H](CC(C)C)NC(=O)CNC(=O)[C@H](CO)NC(=O)[C@H](CCC(N)=O)NC(=O)[C@H](C)NC(=O)CNC(=O)[C@@H](C(C)C)NC(=O)[C@H](CCCNC(=N)N)NC(=O)[C@H](CC(=O)O)NC1=O [[D-Val^137]rANVP(126-150), H-Arg-Ser-Ser-Cys-Phe-Gly-Gly-Arg-Ile-Asp-Arg-[D-Val]-Gly-Ala-Gln-Ser-Gly-Leu-Gly-Cys-Asn-Ser-Phe-Arg-Tyr-OH]",pIC50,[1],7.40
same,"diuresis and natriuresis in intact rats, in words",intact rats; Table VII doses,exceptions
same,Peak Na+ Excr.,intact rats; dose 3670 pmol/kg,0.54 ± 0.3 µmol/min
same,Peak Urine Vol.,intact rats; dose 3670 pmol/kg,9.5 ± 5 µL/min
